What follows are compounds tested against human Nav 1.8 (Homo sapiens, UniProt Q9Y5Y9) (assay: E-VIPR assay detecting and measuring Nav inhibition properties). Conditions: HEK cells expressing a truncated form of human Nav 1.8; compound numbers without "*" (not marked as run in the presence of human serum); read-out: measured IC50 value in the E-VIPR Assay.
Format: cell-based
Summary of the method: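 Nav inhibition was read by E-VIPR: cells were electrically stimulated while coumarin/oxonol FRET emissions were recorded. Cells were HEK expressing a truncated human Nav 1.8 and co-transduced with KIR2.1, and were assayed in 25% final human serum.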

human Nav 1.8, sequence (Q9Y5Y9 126-399 limits assumed): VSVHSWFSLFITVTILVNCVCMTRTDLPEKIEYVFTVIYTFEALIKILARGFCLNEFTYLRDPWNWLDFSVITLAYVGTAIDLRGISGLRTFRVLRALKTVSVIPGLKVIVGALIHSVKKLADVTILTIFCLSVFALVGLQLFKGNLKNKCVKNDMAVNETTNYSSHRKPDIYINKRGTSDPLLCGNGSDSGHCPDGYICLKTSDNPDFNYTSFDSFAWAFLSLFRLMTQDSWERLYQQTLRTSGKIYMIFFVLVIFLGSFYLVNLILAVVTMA
human Nav 1.8, sequence (Q9Y5Y9 660-890 limits assumed): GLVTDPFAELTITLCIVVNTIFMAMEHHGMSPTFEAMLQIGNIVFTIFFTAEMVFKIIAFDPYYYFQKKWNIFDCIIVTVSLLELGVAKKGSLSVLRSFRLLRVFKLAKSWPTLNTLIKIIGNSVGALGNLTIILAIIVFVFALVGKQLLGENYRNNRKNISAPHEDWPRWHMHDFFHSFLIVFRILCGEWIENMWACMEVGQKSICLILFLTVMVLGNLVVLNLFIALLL
human Nav 1.8, sequence (Q9Y5Y9 1148-1722 limits assumed): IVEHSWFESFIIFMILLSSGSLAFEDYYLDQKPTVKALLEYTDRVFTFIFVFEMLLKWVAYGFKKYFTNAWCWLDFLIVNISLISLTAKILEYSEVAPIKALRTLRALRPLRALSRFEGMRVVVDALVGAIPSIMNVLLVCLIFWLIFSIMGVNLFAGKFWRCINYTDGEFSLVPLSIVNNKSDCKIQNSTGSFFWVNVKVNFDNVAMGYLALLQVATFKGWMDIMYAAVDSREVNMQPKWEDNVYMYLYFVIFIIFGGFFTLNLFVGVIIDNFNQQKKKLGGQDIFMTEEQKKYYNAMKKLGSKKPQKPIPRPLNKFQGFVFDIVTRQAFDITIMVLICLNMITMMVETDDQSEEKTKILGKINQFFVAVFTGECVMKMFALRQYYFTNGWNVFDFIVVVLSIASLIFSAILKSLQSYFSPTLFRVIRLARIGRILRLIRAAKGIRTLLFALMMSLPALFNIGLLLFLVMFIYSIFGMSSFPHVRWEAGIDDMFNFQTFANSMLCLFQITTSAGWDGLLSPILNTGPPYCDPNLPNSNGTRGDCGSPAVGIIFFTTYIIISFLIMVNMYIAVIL

IC50 | SMILES
< 10 nM | COc1c([C@H]2[C@H](C(=O)Nc3ccnc(C(=O)N4C[C@H](N)[C@H](OC)C4)c3)O[C@@](C)(C(F)(F)F)[C@H]2C)ccc(F)c1F [Compound 257, (2R,3S,4S,5R)-N-(2-((3S,4R)-3-amino-4-methoxypyrrolidine-1-carbonyl)pyridin-4-yl)-3-(3,4-difluoro-2-methoxyphenyl)-4,5-dimethyl-5-(trifluoromethyl)tetrahydrofuran-2-carboxamide]
< 10 nM | CON=C(C)COc1c([C@H]2[C@H](C(=O)Nc3ccnc(C(N)=O)c3)O[C@@](C)(C(F)(F)F)[C@H]2C)ccc(F)c1F (single isomer, unassigned) [Compound 194, rel-4-((2R*,3S*,4S*,5R*)-3-(3,4-difluoro-2-(2-(methoxyimino)propoxy)phenyl)-4,5-dimethyl-5-(trifluoromethyl)tetrahydrofuran-2-carboxamido)picolinamide]
100 to 1000 nM | CCO[C@H]1CN(C)C[C@@H]1NC(=O)c1cc(NC(=O)[C@@H]2O[C@@](C)(C(F)(F)F)[C@@H](C)[C@H]2c2ccc(F)c(F)c2OC)ccn1 [Compound 291, 4-((2R,3S,4S,5R)-3-(3,4-difluoro-2-methoxyphenyl)-4,5-dimethyl-5-(trifluoromethyl)tetrahydrofuran-2-carboxamido)-N-((3S,4S)-4-ethoxy-1-methylpyrrolidin-3-yl)picolinamide]
10 to 100 nM | Cc1cnc(C(N)=O)cc1NC(=O)[C@@H]1O[C@@](C)(C(F)(F)F)[C@@H](C)[C@H]1c1ccc(F)c(F)c1OCCN1CC2(COC2)C1 [Compound 181, 4-((2R,3S,4S,5R)-3-(2-(2-(2-oxa-6-azaspiro[3.3]heptan-6-yl)ethoxy)-3,4-difluorophenyl)-4,5-dimethyl-5-(trifluoromethyl)tetrahydrofuran-2-carboxamido)-5-methylpicolinamide]
< 10 nM | COC[C@H]1CN(C(=O)c2cc(NC(=O)[C@@H]3O[C@@](C)(C(F)(F)F)[C@@H](C)[C@H]3c3ccc(F)c(F)c3OC)ccn2)CCN1 [Compound 248, (2R,3S,4S,5R)-3-(3,4-difluoro-2-methoxyphenyl)-N-(2-((R)-3-(methoxymethyl)piperazine-1-carbonyl)pyridin-4-yl)-4,5-dimethyl-5-(trifluoromethyl)tetrahydrofuran-2-carboxamide]
≥ 1000 nM | COc1c([C@@H]2[C@@H](C(=O)Nc3ccnc(C(N)=O)c3)O[C@](C)(C(F)(F)F)[C@@H]2C)ccc(F)c1CO (single isomer, unassigned) [Compound 137]
< 10 nM | COc1c([C@H]2[C@H](C(=O)Nc3ccnc(C(=O)N4C[C@@H](N)[C@H](OC)C4)c3)O[C@@](C)(C(F)(F)F)[C@H]2C)ccc(F)c1F [Compound 263, (2R,3S,4S,5R)-N-(2-((3R,4R)-3-amino-4-methoxypyrrolidine-1-carbonyl)pyridin-4-yl)-3-(3,4-difluoro-2-methoxyphenyl)-4,5-dimethyl-5-(trifluoromethyl)tetrahydrofuran-2-carboxamide]

The remaining lines, values behind:

SMILES | IC50
C[C@H]1[C@@H](c2ccc(F)c(F)c2OCc2cnn(C)c2)[C@H](C(=O)Nc2ccnc(C(N)=O)c2)O[C@@]1(C)C(F)(F)F [Compound 73, 4-((2R,3S,4S,5R)-3-(3,4-difluoro-2-((1-methyl-1H-pyrazol-4-yl)methoxy)phenyl)-4,5-dimethyl-5-(trifluoromethyl)tetrahydrofuran-2-carboxamido)picolinamide] | < 10 nM
COCC(COc1c([C@H]2[C@H](C(=O)Nc3ccnc(C(N)=O)c3)O[C@@](C)(C(F)(F)F)[C@H]2C)ccc(F)c1F)OC (stereo partly drawn) [Compound 78, 4-((2R,3S,4S,5R)-3-(2-(2,3-dimethoxypropoxy)-3,4-difluorophenyl)-4,5-dimethyl-5-(trifluoromethyl)tetrahydrofuran-2-carboxamido)picolinamide] | < 10 nM
CNC1CCN(C(=O)c2cc(NC(=O)[C@@H]3O[C@@](C)(C(F)(F)F)[C@@H](C)[C@H]3c3ccc(F)c(F)c3OC)ccn2)C1 (single isomer, unassigned) [Compound 222, rel-(2R*,3S*,4S*,5R*)-3-(3,4-difluoro-2-methoxyphenyl)-4,5-dimethyl-N-(2-(3-(methylamino)pyrrolidine-1-carbonyl)pyridin-4-yl)-5-(trifluoromethyl)tetrahydrofuran-2-carboxamide] | < 10 nM
CC(C)(O)COc1c([C@@H]2C[C@](C)(C(F)(F)F)O[C@H]2C(=O)Nc2ccnc(C(N)=O)c2)ccc(F)c1F (relative stereo) [Compound 32, rel-4-((2R,3S,5R)-3-(3,4-difluoro-2-(2-hydroxy-2-methylpropoxy)phenyl)-5-methyl-5-(trifluoromethyl)tetrahydrofuran-2-carboxamido) picolinamide] | 100 to 1000 nM
C[C@H]1[C@@H](c2cccc(Cl)c2O[C@H]2C[C@@H](O)C2)[C@H](C(=O)Nc2ccnc(C(N)=O)c2)O[C@@]1(C)C(F)(F)F [Compound 213, 4-((2R,3S,4S,5R)-3-(3-chloro-2-((1s,3R)-3-hydroxycyclobutoxy)phenyl)-4,5-dimethyl-5-(trifluoromethyl)tetrahydrofuran-2-carboxamido) picolinamide] | < 10 nM
COc1c([C@H]2[C@H](C(=O)Nc3cc(C(=O)N4CCN(C)CC4)ncc3F)O[C@@](C)(C(F)(F)F)[C@H]2C)ccc(F)c1F [Compound 9, (2R,3S,4S,5R)-3-(3,4-difluoro-2-methoxyphenyl)-N-(5-fluoro-2-(4-methylpiperazine-1-carbonyl)pyridin-4-yl)-4,5-dimethyl-5-(trifluoromethyl)tetrahydrofuran-2-carboxamide] | < 10 nM
COc1c([C@H]2[C@H](C(=O)Nc3ccnc(C(=O)N4CCN(C)[C@@H]5C[C@@H]54)c3)O[C@@](C)(C(F)(F)F)[C@H]2C)ccc(F)c1F (single isomer, unassigned) [Compound 295, rel-(2R*,3S*,4S*,5R*)-3-(3,4-difluoro-2-methoxyphenyl)-4,5-dimethyl-N-(2-((1S,6R)-5-methyl-2,5-diazabicyclo[4.1.0]heptane-2-carbonyl)pyridin-4-yl)-5-(trifluoromethyl)tetrahydrofuran-2-carboxamide] | < 10 nM
COCC1(C)CC(c2ccc(F)c(F)c2OC)C(C(=O)Nc2ccnc(C(N)=O)c2)O1 (single isomer, unassigned) [Compound 29] | ≥ 1000 nM
COc1c([C@H]2[C@H](C(=O)Nc3ccnc(C(=O)N4C[C@@H](C)NC[C@H]4C)c3)O[C@@](C)(C(F)(F)F)[C@H]2C)ccc(F)c1F [Compound 250, (2R,3S,4S,5R)-3-(3,4-difluoro-2-methoxyphenyl)-N-(2-((2R,5R)-2,5-dimethylpiperazine-1-carbonyl)pyridin-4-yl)-4,5-dimethyl-5-(trifluoromethyl)tetrahydrofuran-2-carboxamide] | < 10 nM
COc1c([C@H]2[C@H](C(=O)Nc3ccnc(C(=O)N(C)[C@H]4CNC[C@@H]4OC)c3)O[C@@](C)(C(F)(F)F)[C@H]2C)ccc(F)c1F [Compound 247, 4-((2R,3S,4S,5R)-3-(3,4-difluoro-2-methoxyphenyl)-4,5-dimethyl-5-(trifluoromethyl)tetrahydrofuran-2-carboxamido)-N-((3S,4S)-4-methoxypyrrolidin-3-yl)-N-methylpicolinamide] | < 10 nM
CNC(=O)c1cc(NC(=O)[C@@H]2O[C@@](C)(C(F)(F)F)[C@@H](C)[C@H]2c2ccc(F)c(F)c2OCCO)cc[n+]1[O-] [Compound 84, 4-((2R,3S,4S,5R)-3-(3,4-difluoro-2-(2-hydroxyethoxy)phenyl)-4,5-dimethyl-5-(trifluoromethyl)tetrahydrofuran-2-carboxamido)-2-(methylcarbamoyl)pyridine 1-oxide] | 10 to 100 nM
C[C@H]1[C@@H](c2ccc(F)c(F)c2OCCN2CCC23COC3)[C@H](C(=O)Nc2ccnc(C(N)=O)c2)O[C@@]1(C)C(F)(F)F [Compound 125, 4-((2R,3S,4S,5R)-3-(2-(2-(6-oxa-1-azaspiro[3.3]heptan-1-yl)ethoxy)-3,4-difluorophenyl)-4,5-dimethyl-5-(trifluoromethyl)tetrahydrofuran-2-carboxamido)picolinamide] | < 10 nM
COc1c([C@H]2[C@H](C(=O)Nc3ccnc(C(N)=O)c3)O[C@@](C)(C(F)(F)F)[C@H]2C)cc(OC2CC(F)(F)C2)c(F)c1F [Compound 179, 4-((2R,3S,4S,5R)-3-(5-(3,3-difluorocyclobutoxy)-3,4-difluoro-2-methoxyphenyl)-4,5-dimethyl-5-(trifluoromethyl)tetrahydrofuran-2-carboxamido) picolinamide] | 100 to 1000 nM
C[C@H]1[C@@H](c2ccc(F)c(F)c2O[C@H]2C[C@@H](O)C2)[C@H](C(=O)Nc2ccc(F)c(C(N)=O)c2)O[C@@]1(C)C(F)(F)F [Compound 202] | < 10 nM
COc1c([C@H]2[C@H](C(=O)Nc3ccnc(C(N)=O)c3)O[C@@](C)(C(F)(F)F)[C@H]2C)cc(OCc2ccccc2)c(F)c1F [Compound 177, 4-((2R,3S,4S,5R)-3-(5-(benzyloxy)-3,4-difluoro-2-methoxyphenyl)-4,5-dimethyl-5-(trifluoromethyl)tetrahydrofuran-2-carboxamido) picolinamide] | < 10 nM
COc1c([C@H]2[C@H](C(=O)Nc3nccc(C(=O)N4CCNCC4)n3)O[C@@](C)(C(F)(F)F)[C@H]2C)ccc(F)c1F [Compound 20, (2R,3S,4S,5R)-3-(3,4-difluoro-2-methoxyphenyl)-4,5-dimethyl-N-(4-(piperazine-1-carbonyl)pyrimidin-2-yl)-5-(trifluoromethyl)tetrahydrofuran-2-carboxamide] | 10 to 100 nM
COc1c([C@H]2[C@H](C(=O)Nc3ccnc(C(=O)N4CCN[C@H](C)C4)c3)O[C@@](C)(C(F)(F)F)[C@H]2C)ccc(F)c1F [Compound 249, (2R,3S,4S,5R)-3-(3,4-difluoro-2-methoxyphenyl)-4,5-dimethyl-N-(2-((R)-3-methylpiperazine-1-carbonyl)pyridin-4-yl)-5-(trifluoromethyl)tetrahydrofuran-2-carboxamide] | < 10 nM
